Laboratory results reported in US20200123175A1, “NOVEL ISOTHIAZOLO-BASED BICYCLES, PROCESSES FOR THEIR PREPARATION AND THEIR USE AS HERBICIDES AND/OR PLANT GROWTH REGULATORS” (Bayer CropScience Aktiengesellschaft, priority 2017, published 2020).

What was measured:
Details in all cases: dosage 320 g/ha
[1] = tested on: ECHCG; assay: Herbicidal action pre-emergence (PE); format: in vivo, Echinochloa crus-galli
[2] = tested on: SETVI; assay: Herbicidal action pre-emergence (PE); format: in vivo, Setaria viridis
[3] = tested on: AMARE; assay: Herbicidal action pre-emergence (PE); format: in vivo, Amaranthus retroflexus
[4] = tested on: VIOTR; assay: Herbicidal action pre-emergence (PE); format: in vivo, Viola tricolor
[5] = tested on: MATIN; assay: Herbicidal action pre-emergence (PE); format: in vivo, Matricaria inodora
[6] = tested on: POLCO; assay: Herbicidal action pre-emergence (PE); format: in vivo, Polygonum convolvulus
[7] = tested on: SETVI; assay: Herbicidal action post-emergence (PO); format: in vivo, Setaria viridis
[8] = tested on: AMARE; assay: Herbicidal action post-emergence (PO); format: in vivo, Amaranthus retroflexus
[9] = tested on: VIOTR; assay: Herbicidal action post-emergence (PO); format: in vivo, Viola tricolor
[10] = tested on: ABUTH; assay: Herbicidal action post-emergence (PO); format: in vivo, Abutilon theophrasti
[11] = tested on: PHBPU; assay: Herbicidal action post-emergence (PO); format: in vivo, Pharbitis purpurea

Compound | ECHCG [1] | SETVI [2] | AMARE [3] | VIOTR [4] | MATIN [5] | POLCO [6] | SETVI [7] | AMARE [8] | VIOTR [9] | ABUTH [10] | PHBPU [11]
Nc1nsc2c(=O)n(CC3CCCCC3)cnc12 [Example I-17] | 100 | 100 | 100 | 100 | 100 | 100 | 100 | 100 | 100 | 90 | 100
Nc1nsc2c(=O)n(CC3=CCCCC3)cnc12 [Example I-29] | 100 | 100 | 100 | 100 | 100 | 100 | 100 | 100 | 100 | 80 | 80
Nc1nsc2c(=O)n(CC3CCCCCC3)cnc12 [Example I-31] | 90 | 100 | 100 | 100 | 100 | 100 | – | – | – | – | –
CC(c1ccccc1)n1cnc2c(NC(=O)C3CC3)nsc2c1=O (stereo not shown) [Example I-40] | – | – | – | – | – | – | 90 | 100 | 100 | 100 | 100
Nc1nsc2c1NCN(Cc1ccc(F)cc1F)C2=O [Example I-42] | 100 | 100 | 100 | 100 | 100 | 100 | 100 | 100 | 100 | 80 | 100
Nc1nsc2c1NCN(CC1CCCCO1)C2=O (stereo not shown) [Example I-43] | 100 | 90 | 100 | 100 | 90 | 100 | – | – | – | – | –
CCCC(=O)Nc1nsc2c(=O)n(CC3CCCCC3)cnc12 [Example I-45] | 100 | 100 | 100 | 100 | 100 | 100 | – | 100 | 90 | 100 | –
O=C(Nc1nsc2c(=O)n(CC3CCCCC3)cnc12)C(F)(F)F [Example I-53] | 100 | 100 | 100 | 100 | 100 | 100 | 100 | 100 | 100 | 100 | 100
CCC(=O)Nc1nsc2c(=O)n(CC3CCCCC3)cnc12 [Example I-54] | 100 | 100 | 100 | 100 | 100 | 100 | – | 100 | 90 | 100 | –
CC(=O)Nc1nsc2c(=O)n(CC3CCCCC3)cnc12 [Example I-55] | 100 | 100 | 100 | 100 | 100 | 100 | – | 100 | 100 | 100 | –
O=C(CCl)Nc1nsc2c(=O)n(CC3CCCCC3)cnc12 [Example I-56] | 100 | 100 | 100 | 100 | 90 | 100 | – | – | – | – | –
O=C(Nc1nsc2c(=O)n(CC3CCCCC3)cnc12)C(F)(F)C(F)(F)F [Example I-57] | 100 | 100 | 100 | 100 | 100 | 100 | – | 100 | 100 | 100 | –
O=C(Nc1nsc2c(=O)n(CC3CCCCC3)cnc12)C(F)(F)C(F)(F)C(F)(F)F [Example I-58] | 100 | 100 | 100 | 100 | 90 | 90 | – | 100 | 100 | 90 | –
Nc1nsc2c1NCN(CC1CCCC1)C2=O [Example I-63] | 100 | 100 | 100 | 100 | 100 | 100 | – | 100 | 100 | 100 | –
Nc1nsc2c1NCN(Cc1ccc(F)cc1)C2=O [Example I-64] | 100 | 100 | 100 | 100 | 100 | 90 | – | 100 | 80 | 90 | –
O=C(Nc1nsc2c(=O)n(CC3CCCCC3)cnc12)C(F)(Cl)C(F)(F)F (stereo not shown) [Example I-67] | 100 | 100 | 100 | 100 | 100 | 100 | – | – | – | – | –
O=C(CC(F)(F)F)Nc1nsc2c(=O)n(CC3CCCCC3)cnc12 [Example I-73] | 100 | 100 | 100 | 100 | 100 | 100 | – | 100 | 100 | 100 | –
Cc1nn(CC2CCCCC2)c(=O)c2snc(N)c12 [Example I-75, 3-amino-6-(cyclohexylmethyl)-4-methyl-isothiazolo[4,5-d]pyridazin-7-one] | 90 | 100 | 100 | 90 | 90 | 90 | – | – | – | – | –
O=C(Nc1nsc2c(=O)n(Cc3ccc(F)cc3F)cnc12)C(F)(F)C(F)(F)Cl [Example I-76] | 90 | 100 | 100 | 100 | 100 | 100 | – | 100 | 100 | 80 | –
O=C(Nc1nsc2c(=O)n(Cc3ccc(F)cc3F)cnc12)C(F)(Cl)C(F)(F)F (stereo not shown) [Example I-77] | 80 | 100 | 100 | 100 | 100 | 100 | – | – | – | – | –
COC(=O)C(=O)Nc1nsc2c(=O)n(Cc3ccc(F)cc3F)cnc12 [Example I-81] | 100 | 90 | 100 | 100 | 100 | 100 | – | – | – | – | –
O=C(CC(F)(F)F)Nc1nsc2c(=O)n(Cc3ccc(F)cc3F)cnc12 [Example I-82] | 100 | 100 | 100 | 100 | 100 | 100 | – | – | – | – | –
COCC(=O)Nc1nsc2c(=O)n(Cc3ccc(F)cc3F)cnc12 [Example I-83] | 100 | 100 | 100 | 100 | 100 | 90 | – | – | – | – | –
